Values of other authors in patent US12036203B2, “Methods of treating or reducing the risk of cardiovascular events and related diseases using SGLT-2 inhibitors” (Merck Sharp & Dohme LLC, priority 2016, dated 2024).

Details: type 2 diabetes at high cardiovascular risk

SMILES: OC[C@H]1O[C@@H](c2ccc(Cl)c(Cc3ccc(O[C@H]4CCOC4)cc3)c2)[C@H](O)[C@@H](O)[C@@H]1O [empagliflozin]
- rate of hospitalization for heart failure (in addition to standard of care, placebo group 4.1%): 2.7%
- rate of death from cardiovascular causes (in addition to standard of care, placebo group 5.9%): 3.7%
- rate of death from any cause (in addition to standard of care, placebo group 8.3%): 5.7%
- rates of myocardial infarction or stroke (vs. placebo): no significant between-group differences
- relative risk reduction, death from any cause (vs. placebo): 32%
- relative risk reduction, death from cardiovascular causes (vs. placebo): 38%
- relative risk reduction, hospitalization for heart failure (vs. placebo): 35%
